The target in data set [1] is covalently-crosslinked hexameric CA A14C/E45C/W184A/M185A (CA121) (Human immunodeficiency virus type 1 group M subtype B, UniProt P12493, A146C/E177C/M317A/W316A). The data set can be described thus: Thermal shift assay (TSA) on CA hexamer stability. It counts as binding, HIV-1. To be noted: 20 µM compound, 7.5 µM CA121.
In data set [2] the test system is HIV-1NL4-3. The data set can be described thus: microbe, parasite or virus in culture. It counts as cell-based. Particulars: TZM-GFP cells, HIV-1NL4-3 MOI 0.1, 48 h, mean ± SD; for EC50: Human immunodeficiency virus 1, read-out: EC50 (concentration of compound inhibiting HIV-1 replication by 50%).
A short description of data set [3]: Cytotoxicity assay (XTT) in TZM-GFP cells. Particulars: human, mean ± SD, read-out: CC50 (concentration of compound causing 50% cell death). Type of data set: cell-based.
Data set [4] can be described thus: Microsomal stability, human liver microsomes. It counts as in vitro ADME. Particulars: 0.5 mg/mL microsomal protein, NADPH, 37 °C; for half-life at 1 µM: human, liver microsomes, pH 7.4, 1 µM compound, read-out: Phase I metabolic stability t1/2, HLMs.
Data set [5] can be described thus: Microsomal stability, mouse liver microsomes. It counts as in vitro ADME. Particulars: pH 7.4, 1 µM compound, 0.5 mg/mL microsomal protein, NADPH, 37 °C, read-out: Phase I metabolic stability t1/2, MLMs.
The nature of data set [6]: Metabolites observed in the microsomal stability assay. Type of data set: in vitro ADME. Particulars: observed in liver microsomal stability assay.
For data set [7] the following is noted: cited from earlier work.
For data set [8] the following is noted: cited from earlier work. This is another data set of the same source.

Each structure is given as a SMILES string. Values joined by “and” are separate entries in the source; they are usually repeats but may differ in a detail not shown here. Identical values can stand only once.

With `Cc1[nH]c2ccccc2c1CC(=O)N[C@@H](Cc1ccccc1)C(=O)N1CCc2ccccc21` [Compound 1], the “TSA ΔTm (change of CA crosslinked hexamer melting temperature vs DMSO)” value in data set [1] is −0.5 °C. The EC50 in data set [2] was > 20 µM. Besides, the CC50 at 72 h in data set [3] was > 100 µM.

As for `O=C(Cc1c[nH]c2ccccc12)N[C@@H](Cc1ccccc1)C(=O)N1CCc2ccccc21` [Compound 2], the “TSA ΔTm (change of CA crosslinked hexamer melting temperature vs DMSO)” value in data set [1] was −1.0 °C. The EC50 in data set [2] is > 20 µM. For the same compound, in data set [3], the CC50 at 72 h is > 100 µM.

For `O=C(Cc1c[nH]c2ccccc12)N[C@@H](Cc1ccccc1)C(=O)N1CCCc2ccccc21` [Compound 3], the “TSA ΔTm (change of CA crosslinked hexamer melting temperature vs DMSO)” value in data set [1] was determined as 1.8 ± 1.2 °C. Moreover, in data set [2], the EC50 is > 20 µM. Besides, the CC50 at 72 h in data set [3] was > 50 µM.

Regarding `Cc1[nH]c2ccccc2c1CC(=O)N[C@H](Cc1ccccc1)c1ncccc1-c1ccccc1` [Compound 4], in data set [2], the EC50 was > 20 µM and the “EC50 (concentration of compound inhibiting HIV-1 replication by 50%)” value is “completely inactive”. Further, the CC50 at 72 h in data set [3] was < 50 µM.

For the compound `O=C(Cn1ncc2ccccc21)N[C@H](Cc1ccccc1)c1ncccc1-c1ccccc1` [Compound 5], the “TSA ΔTm (change of CA crosslinked hexamer melting temperature vs DMSO)” value in data set [1] came to 0.1 ± 0.07 °C. In data set [2], the EC50 is > 20 µM. For the same compound, the CC50 at 72 h in data set [3] is < 50 µM.

With `O=C(Cn1cccn1)N[C@H](Cc1ccccc1)c1ncccc1-c1ccccc1` [Compound 6], the “TSA ΔTm (change of CA crosslinked hexamer melting temperature vs DMSO)” value in data set [1] came out at 0.3 ± 0.1 °C. Moreover, the EC50 in data set [2] is > 15 µM. Also, the CC50 at 72 h in data set [3] was > 50 µM.

Consider `O=C(Cn1ncc2ccccc21)N[C@H](Cc1ccccc1)c1ncccc1-c1cccc2cn[nH]c12` [Compound 7], for which the “TSA ΔTm (change of CA crosslinked hexamer melting temperature vs DMSO)” value in data set [1] amounted to 0 ± 0 °C. In data set [2], the EC50 is > 20 µM. Further, in data set [3], the CC50 at 72 h was > 50 µM.

Take `O=C(Cn1cccn1)N[C@H](Cc1ccccc1)c1ncccc1-c1cccc2cn[nH]c12` [Compound 8]: the “TSA ΔTm (change of CA crosslinked hexamer melting temperature vs DMSO)” value in data set [1] was found to be 0.1 ± 0.1 °C. Further, the EC50 in data set [2] was > 20 µM. Further, the CC50 at 72 h in data set [3] is > 50 µM.

In the case of `Cc1[nH]c2ccccc2c1CC(=O)N[C@@H](Cc1ccccc1)c1ncccc1-c1ccccc1` [Compound 9], in data set [1], the “TSA ΔTm (change of CA crosslinked hexamer melting temperature vs DMSO)” value was 4.5 °C and 4.5 ± 0.0 °C. Moreover, the EC50 in data set [2] turned out to be 2.6 ± 0.4 µM. In addition, the CC50 at 72 h in data set [3] is < 50 µM. The half-life at 1 µM was found to be 1.2 ± 0.04 min in data set [4] and 1 ± 0.01 min in data set [5].

Regarding `O=C(Cn1ncc2ccccc21)N[C@@H](Cc1ccccc1)c1ncccc1-c1ccccc1` [Compound 10, (S)-2-(1H-indazol-1-yl)-N-(2-phenyl-1-(3-phenylpyridin-2-yl)ethyl)acetamide], in data set [2], the EC50 worked out at 8.8 ± 0.4 µM and the “EC50 (concentration of compound inhibiting HIV-1 replication by 50%)” value was “low micromolar”. In addition, the CC50 at 72 h in data set [3] was < 50 µM.

`O=C(Cn1cccn1)N[C@@H](Cc1ccccc1)c1ncccc1-c1ccccc1` [Compound 11, (S)-N-(2-phenyl-1-(3-phenylpyridin-2-yl)ethyl)-2-(1H-pyrazol-1-yl)acetamide]: in data set [2], the EC50 is 5.1 ± 0.7 µM and the “EC50 (concentration of compound inhibiting HIV-1 replication by 50%)” value was “low micromolar”. Also, the CC50 at 72 h in data set [3] is > 50 µM.

`Cc1[nH]c2ccccc2c1CC(=O)N[C@@H](Cc1ccccc1)c1ncccc1-c1cccc(C#N)c1` [Compound 12]: in data set [1], the “TSA ΔTm (change of CA crosslinked hexamer melting temperature vs DMSO)” value was −0.2 ± 0.07 °C. In addition, in data set [2], the EC50 is > 20 µM. Moreover, the CC50 at 72 h in data set [3] is > 50 µM.

As for `O=C(Cc1c[nH]c2ccccc12)N[C@@H](Cc1ccccc1)c1ncccc1-c1ccc(Cl)cc1` [Compound 13], the “TSA ΔTm (change of CA crosslinked hexamer melting temperature vs DMSO)” value in data set [1] was found to be 7.7 ± 0.2 °C. Besides, in data set [2], the EC50 was 0.79 ± 0.25 µM. Also, the CC50 at 72 h in data set [3] was found to be 22 ± 2 µM.

As to `COc1ccc2[nH]cc(CC(=O)N[C@@H](Cc3ccccc3)c3ncccc3-c3ccc(Cl)cc3)c2c1` [Compound 14], the “TSA ΔTm (change of CA crosslinked hexamer melting temperature vs DMSO)” value in data set [1] was determined as 7.8 ± 0.3 °C. Moreover, the EC50 in data set [2] is 1.4 ± 0.7 µM. Moreover, in data set [3], the CC50 at 72 h came to 39 ± 0.2 µM. In addition, the half-life at 1 µM in data set [4] stood at 1.7 ± 0.02 min; in data set [5], 0.9 ± 0.004 min. In addition, the “Metabolite (s)” value in data set [6] turned out to be 15.

In the case of `O=C(Cc1c[nH]c2ccc(O)cc12)N[C@@H](Cc1ccccc1)c1ncccc1-c1ccc(Cl)cc1` [Compound 15], in data set [1], the “TSA ΔTm (change of CA crosslinked hexamer melting temperature vs DMSO)” value was 8.7 °C and 8.7 ± 0.3 °C. Besides, the EC50 in data set [2] was 0.31 ± 0.07 µM. In addition, the CC50 at 72 h in data set [3] was determined as 44 ± 1 µM. The “Phase I metabolic stability t1/2, HLMs” value in data set [4] (1 µM compound) is on record as 27.2 ± 0.5 min. Also, the half-life at 1 µM in data set [4] worked out at 27 min; in data set [5] it was 3.1 ± 0.3 min.

`CCn1cc(CC(=O)N[C@@H](Cc2ccccc2)c2ncccc2-c2ccc(Cl)cc2)c2ccccc21` [Compound 16]: in data set [1], the “TSA ΔTm (change of CA crosslinked hexamer melting temperature vs DMSO)” value worked out at 6.6 ± 0.2 °C. Also, the EC50 in data set [2] was determined as 2.7 ± 0.2 µM. The CC50 at 72 h in data set [3] came to 41 ± 0.1 µM. Also, the half-life at 1 µM in data set [4] and in data set [5] was 1.4 ± 0.02 min each time. In data set [6], the “Metabolite (s)” value was found to be 15.

Consider `CCn1cc(CC(=O)N[C@@H](Cc2ccccc2)c2ncccc2-c2ccc(Cl)cc2)c2cc(OC)ccc21` [Compound 17], for which the “TSA ΔTm (change of CA crosslinked hexamer melting temperature vs DMSO)” value in data set [1] was found to be 5.9 ± 0.2 °C. In data set [2], the EC50 amounted to 3.6 ± 0.2 µM. Further, the CC50 at 72 h in data set [3] is 48 ± 6 µM. Also, the values for the half-life at 1 µM in data set [4] and in data set [5] were 1.3 ± 0.01 min and 1.3 ± 0.005 min, respectively. The “Metabolite (s)” value in data set [6] was 15 and 14.

In the case of `COc1ccc2[nH]cc(CC(=O)N[C@@H](Cc3ccccc3)c3ncccc3-c3ccc(Br)cc3)c2c1` [Compound 18], the “TSA ΔTm (change of CA crosslinked hexamer melting temperature vs DMSO)” value in data set [1] turned out to be 6.3 ± 0.6 °C. Further, the EC50 in data set [2] turned out to be 2.1 ± 0.8 µM. In addition, in data set [3], the CC50 at 72 h was found to be 40 ± 4 µM.

With `CCn1cc(CC(=O)N[C@@H](Cc2ccccc2)c2ncccc2-c2ccc(Br)cc2)c2ccccc21` [Compound 19], the “TSA ΔTm (change of CA crosslinked hexamer melting temperature vs DMSO)” value in data set [1] came out at 6.3 ± 0.1 °C. Further, the EC50 in data set [2] was 3.2 ± 0.3 µM. Further, the CC50 at 72 h in data set [3] amounted to 41 ± 2 µM.

For the compound `Cc1[nH]c2ccccc2c1CC(=O)N[C@@H](Cc1ccccc1)c1nccn1-c1ccccc1` [Compound 20], the “TSA ΔTm (change of CA crosslinked hexamer melting temperature vs DMSO)” value in data set [1] was 3.9 °C and 3.9 ± 0.4 °C. In data set [2], the EC50 was 3.7 ± 0.8 µM. Besides, the CC50 at 72 h in data set [3] was > 50 µM. Moreover, the half-life at 1 µM stood at 0.9 ± 0.004 min in data set [4] and 0.7 ± 0.01 min in data set [5].

Regarding `Cc1[nH]c2ccccc2c1CC(=O)N[C@@H](Cc1ccccc1)c1nccn1-c1ccc(C#N)cc1` [Compound 21], the “TSA ΔTm (change of CA crosslinked hexamer melting temperature vs DMSO)” value in data set [1] was 2.2 ± 0.0 °C. Moreover, the EC50 in data set [2] was 6.6 ± 0.4 µM. Besides, in data set [3], the CC50 at 72 h was > 50 µM.

For `Cc1[nH]c2ccccc2c1CC(=O)N[C@@H](Cc1ccccc1)c1nccn1-c1ccc(-c2nnn[nH]2)cc1` [Compound 22], the “TSA ΔTm (change of CA crosslinked hexamer melting temperature vs DMSO)” value in data set [1] is −0.3 ± 0.1 °C. Also, the EC50 in data set [2] is > 20 µM. Also, the “EC50 (concentration of compound inhibiting HIV-1 replication by 50%)” value in data set [2] is “no antiviral activity”. Moreover, the CC50 at 72 h in data set [3] is > 50 µM. Besides, the half-life at 1 µM in data set [4] was 1.3 ± 0.01 min; in data set [5], 0.9 ± 0.01 min.

As for `COc1ccc2[nH]cc(CC(=O)N[C@@H](Cc3ccccc3)c3nccn3-c3ccc(Cl)cc3)c2c1` [Compound 23], the “TSA ΔTm (change of CA crosslinked hexamer melting temperature vs DMSO)” value in data set [1] amounted to 4.0 ± 0.3 °C. In data set [2], the EC50 is 3.3 ± 0.03 µM. The CC50 at 72 h in data set [3] came to 93 ± 2 µM.

On to `COc1ccc2[nH]cc(CC(=O)N[C@@H](Cc3ccccc3)c3nccn3-c3ccc(Br)cc3)c2c1` [Compound 24], for which, in data set [1], the “TSA ΔTm (change of CA crosslinked hexamer melting temperature vs DMSO)” value was 2.8 ± 0.3 °C. Besides, the EC50 in data set [2] stood at 3.5 ± 0.3 µM. The CC50 at 72 h in data set [3] was > 100 µM.

For `COc1ccc2[nH]cc(CC(=O)N[C@@H](Cc3ccccc3)c3nccn3-c3ccc(I)cc3)c2c1` [Compound 25], in data set [1], the “TSA ΔTm (change of CA crosslinked hexamer melting temperature vs DMSO)” value was 2.7 ± 0.1 °C. Also, the EC50 in data set [2] was determined as 3.3 ± 0.2 µM. Moreover, the CC50 at 72 h in data set [3] was > 100 µM.

`Cc1[nH]c2ccccc2c1CC(=O)N[C@@H](Cc1ccccc1)C(=O)N(C)c1ccccc1` [PF74, reference compound]: the “TSA ΔTm (change of CA crosslinked hexamer melting temperature vs DMSO)” value in data set [1] is 6.9 °C and 6.9 ± 0.5 °C. The EC50 in data set [2] was found to be 0.7 ± 0.07 µM. In data set [7], the “half-life (t1/2) in human liver microsomes (HLMs)” value is “less than 1 min”. In addition, the “half-life (t1/2) in mouse liver microsomes (MLMs)” value in data set [8] is “less than 1 min”.
